From US3978055A, “Arylamino pyrimidinic derivatives” (priority 1973, dated 1976)
Where two headings read alike, the source gives them in different places.

How the values were obtained:
[1] = tested on: pain threshold in the dentary pulp stimulation test; test: Dentary pulp stimulation test; format: in vivo; conditions: rabbit
From the text: Moreover, the derivatives of formula I, administered rectally to a rabbit, enabled the pain threshold to be raised in the dentary pulp stimulation test.
As an example, the following table XI gives the results of a comparative study between the activity of derivative code number 730 229 and that of glaphenine, the activities being estimated by the dentary stimulation test

mouse = test: Lethal doses / percentage mortality; format: in vivo; conditions: Table IX
From the text: (§1) As a result of a comparison between the pharmacologically active doses mentioned above, and the lethal doses listed in the following table XIV, the difference between the doses is sufficiently great to permit the utilisation of the derivatives of formula I in therapeutics.

[2] = Lethal doses / percentage mortality; format: in vivo; conditions: mouse, in vivo; for LD50: po, Table IX, read-out: DE 50 (second column; DL 50) (converted)
From the text: as §1

[3] = tested on: crying and jumping in the Randall and Selitto test; test: Randall and Selitto test; format: in vivo, rat; conditions: for ED50: po, read-out: 105 DE (DE 50)
[4] = tested on: local oedema caused by sub-plantar injection of carraghenine; test: Sub-plantar oedema caused by carraghenine (antiinflammatory); format: in vivo, rat; conditions: for ED50: po; for inhibition in vivo at 100 mg/kg: 100 mg/kg/PO, read-out: Percentage reduction of subplantar oedema
From the text: These properties are shown by a diminution of the local oedema caused by the sub-plantar injection of a phlogogenic agent, such as carraghenine, in the rat following the oral administration of derivatives of formula I.

[5] = tested on: painful stretchings caused by acetic acid; test: Analgesic test with acetic acid (painful stretchings); format: in vivo, mouse; conditions: po, read-out: 105 DE (DE 50)
[6] = tested on: painful stretchings caused by bradykinine; test: Analgesic test with bradykinine (painful stretchings); format: in vivo, mouse; conditions: for ED50: Mus musculus, po, read-out: 105 DE (DE 50)
[7] = tested on: painful stretchings caused by phenylbenzoquinone; test: Analgesic test with phenylbenzoquinone (painful stretchings); format: in vivo; conditions: Mus musculus, po; for ED50: read-out: 105 DE (DE 50); for inhibition in vivo at 100 mg/kg: read-out: Percentage of diminution of the number of painful stretchings
Shay ulcers = test: Gastric ulcers provoked by tying of the pylorus (Shay ulcers); format: in vivo; conditions: intraduodenal; rat, 50mg/kg/i.d.; read-out: Percentage reduction of shay ulcers
Experimental: The derivatives of formula I, administered by oral means, reduce the extent of gastric ulcers provoked in a rat by tying of the pylorus (Shay ulcers)
Table IV indicated, by way of example, the results obtained by the administration of 50mg/kg/i.d. of different derivatives of formula I.

[8] = tested on: isolated heart of guinea-pig; test: Augmentation of flow of coronary vessels of isolated heart (vasodilatatory); conditions: Cavia porcellus, read-out: Percentage augmentation of flow of isolated heart of guinea-pig
Experimental: The derivatives of formula I are capable of augmenting the flow of the coronary vessels of this isolated heart of a guinea - pig, when said derivatives are added in the perfusion liquid of said organ.
The percentage augmentation of the flow of the isolated heart of the guinea - pig by adding different derivatives of formula I to the perfusion liquid are given by way of example in the following Table V.

[9] = tested on: bronchoconstriction provoked by acetylcholine; test: Bronchoconstriction provoked by intravenous acetylcholine, Konzett method; format: in vivo; conditions: guinea-pig, intraperitoneal injection of 100mg/kg
Experimental: Injected by intraduodenal means, the derivatives of formula I are capable of opposing the bronchoconstriction provoked in the guinea - pig by the intraveinous injection of acetylcholine and evaluated by the Konzett method.
By way of example, the following Table VI lists the percentage inhibition of the bronchoconstriction following the intraperitoneal injection of 100mg/kg of different derivatives of formula I.

[10] = tested on: analgesic action of dextromoramide in the Eddy test; test: Eddy test (potentialisation of dextromoramide analgesia); format: in vivo, mouse; conditions: for ED50: Mus musculus, po, read-out: 105 DE (DE 50)
[11] = tested on: arterial pressure of anaesthetised rat; test: Lowering of arterial pressure of anaesthetised rat (hypotensive properties); format: in vivo; conditions: 2 mg/kg/i.v.
From the text: Administered by intraveinous means to an anaesthetised rat, the derivatives of formula I provoke a lowering of the arterial pressure.
By way of example, the following Table VIII mentions the results obtained by administration of different derivatives of formula I.

volume of urine emitted = test: Augmentation of urinary elimination (diuretic properties); format: in vivo; conditions: po; mouse, 25mg/kg/p.o., 6 hours; read-out: Percentage augmentation of urinary elimination
Experimental: The derivatives of formula I, administered by oral means to the mouse, simultaneously with a volume of 1ml of an isotonic solution of sodium chloride per 25g of the corporeal weight of the mouse, are capable of provoking an augmentation of the volume of urine emitted by reference to control animals, the volume being measured for 6 hours following administration.
The following Table VII indicates, by way of example the percentage augmentation of urinary elimination resulting from the administration of 25mg/kg/p.o. of different derivatives of formula I.

[12] = tested on: number of explorations in the escape enclosure; test: Number of explorations in the escape enclosure (sedative properties); format: in vivo, mouse; conditions: po
[13] = tested on: number of explorations in the actimeter; test: Number of explorations in an actimeter having luminous beams and photoelectric cells (sedative properties); format: in vivo; conditions: mouse, oral, read-out: DE 50, number of explorations in the actimeter
Experimental: The derivatives of formula I, administered by oral means to the mouse, reduce the number of explorations in the escape enclosure and in an actimeter having luminous beams and photoelectric cells.
Also, the DE 50 of the derivative of code No. 730 229 is 82mg/kg/p.o. for the test on the number of explorations in the escape enclosure and 120mg/kg/p.o. for the test on the number of explorations in the actimeter.

[14] = tested on: isolated heart of the guinea-pig; test: Force of contractions on isolated heart (positive inotrope action)
Experimental: Additionally, the derivative of Code No. 730 712 added to the conserving medium in a concentration of 1 μg/ml, permit an augmentation of 140% in the force of contractions on the isolated heart of the guinea- pig.

[15] = tested on: arterial pressure of an anaesthetised rat; test: Increase in arterial pressure of anaesthetised rat (hypertensive properties); format: in vivo; conditions: 2 mg/kg/i.v.
Experimental: Administered by intraveinous means, the derivatives of formula I provoke an increase in the arterial pressure of an anaosthetised rat.
By way of example, the results obtained by the administration of 2 mg/kg/i.v. of different derivatives of formula I are listed in the following Table III.

[16] = antiinflammatory activity, rat, read-out: DE 50 (the source's name)

Row | Structure (SMILES) | DE 50 (second column; DL 50) (mouse) | LD50 [2] [mg/kg] | ED50 [6] [mg/kg] | ED50 [7] [mg/kg] | inhibition in vivo at 50 mg/kg (Shay ulcers) [%] | mortality ([2]; 2000 mg/kg, 2 000 mg/kg/PO) [%] | Percentage inhibition of bronchoconstriction [9] [%] | ED50 [10] [mg/kg] | change in vivo at 25 mg/kg (volume of urine emitted) [%] | also measured
1 | O=C(OCC(O)CO)c1ccccc1Nc1ccnc2cc(Cl)ccc12 (centres unmarked) [glaphenine, N-(7-chloro-4-quinolyl) anthranilic acid 2,3-dihydroxypropylester] | 1 900 mg/kg/PO | 1900 | 48 | 60 | – | – | – | – | – | Duration of action ([1]; 50 mg/kg rectally): 1 h; Number of rabbits whose pain threshold is increased by 0,5 V ([1]; 50 mg/kg rectally): 4/10; Duration of action ([1]; 100 mg/kg rectally): 1,5 hours; Number of rabbits whose pain threshold is increased by 0,5 V ([1]; 100 mg/kg rectally): 6/10; Peak action ([1]; 100 mg/kg rectally): 45 mn; Duration of action ([1]; 200 mg/kg rectally): 2 h; Number of rabbits whose pain threshold is increased by 0,5 V ([1]; 200 mg/kg rectally): 8/10; ED50 ([3]; Randall and Selitto test, rat): 65 mg/kg; ED50 [4, 16]: 9 mg/kg; ED50 ([5]; test with acetic acid, mouse): 80 mg/kg
2 | Cc1cc(Nc2ccc(C(=O)N3CCCC3)cc2)nc(-c2ccc(Cl)cc2)n1 [72 255] | – | – | – | – | 35 | 0 | 50 | – | – | activation at 1 µg/mL ([8]; 1 μg/ml): 45%; inhibition in vivo at 100 mg/kg ([4]; rat): 60%
3 | Cc1cc(Nc2ccccc2C(=O)OCC(O)CO)nc(-c2cccc(C(F)(F)F)c2)n1 (stereo not drawn) [72 502, 2 - (3' - trifluoromethylphenyl)-4-[ortho (β, γ-dihydroxy propoxycarbonyl)phenylamino] -6-methyl pyrimidine] | – | – | – | – | 35 | 0 | 50 | – | – | –
4 | Cc1cc(Nc2ccc(OCCN(C)C)cc2)nc(-c2cccc(Cl)c2)n1 [730 262] | 2 500 mg/kg/PO | 2500 | 100 | 52 | – | – | – | 60 | – | mortality ([2]; 2 2500 mg/kg/PO): ~50%
5 | Cc1cc(Nc2ccc(OCCN(C)C)cc2)nc(-c2cccc(C(F)(F)F)c2)n1 [730 241] | – | – | – | – | – | 0 | – | – | – | activation at 0.5 µg/mL ([8]; 0.5 μg/ml): 77%; Percentage reduction of arterial pressure of anaesthetised rat [11]: 24%; Duration of effect ([11]; hypotensive effect): 30 mn; inhibition in vivo at 100 mg/kg [7]: 67%
6 | Cc1cc(Nc2ccc(OCCN3CCOCC3)cc2)nc(-c2ccccc2)n1 [730 229] | 2 800 mg/kg/PO | 2800 | 45 | 10 | – | – | – | 23 | 129 | Duration of action ([1]; 50 mg/kg rectally): 2 h; Number of rabbits whose pain threshold is increased by 0,5 V ([1]; 50 mg/kg rectally): 7/10; Peak action ([1]; 50 mg/kg rectally): 1 h; mortality ([2]; 2 800 mg/kg/PO): ~50%; ED50 ([3]; Randall and Selitto test, rat): 45 mg/kg; ED50 ([12]; Mus musculus, read-out: DE 50, number of explorations in the escape enclosure): 82 mg/kg; antiinflammatory activity compared with reference compounds ([4]; comparison of Table XIII): clearly superior to that of amidopyrine and acetylsalicylic acid, and hardly inferior to that of glaphenine; ED50 [4, 16]: 22 mg/kg; ED50 ([5]; test with acetic acid, mouse): 70 mg/kg; ED50 [13]: 120 mg/kg
7 | Cc1cc(Nc2ccc(C(N)=O)cc2)nc(-c2ccc3c(c2)OCO3)n1 [730 025] | – | – | – | – | 35 | 0 | 50 | – | 140 | –
8 | Cc1cc(Nc2ccc(C(N)=O)cc2)nc(-c2ccc(Cl)cc2)n1 [72 311] | – | – | – | – | 40 | 0 | 80 | – | – | inhibition in vivo at 100 mg/kg ([4]; rat): 50%
9 | Cc1c(N(C)C)c(=O)n(-c2ccccc2)n1C [amidopyrine, 4-dimethylamino-2,3-dimethyl-1 phenyl-3-pyrazolin-5-one, reference compound] | 1 050 mg/kg/PO | 1050 | 48 | 45 | – | – | – | 35 | – | DE 50 / DL 50 ([3]; Randall and Selitto test): 1.10^-1; ED50 ([3]; Randall and Selitto test, rat): 110 mg/kg; ED50 [4, 16]: 140 mg/kg; ED50 ([5]; test with acetic acid, mouse): 80 mg/kg
10 | CC(=O)Oc1ccccc1C(=O)O [acetylsalicylic acid, reference compound] | – | 700 | 180 | 72 | – | – | – | > 200 | – | ED50 ([3]; Rattus norvegicus): 110 mg/kg; ED50 ([4]; Rattus norvegicus, read-out: DE 50): 40 mg/kg; ED50 ([5]; Mus musculus): 115 mg/kg; effect in Eddy test (40 % with 200) ([10]; 200 mg/kg/PO): 40%
11 | Cc1cc(Nc2ccc(OCCN3CCCC3)cc2)nc(-c2ccccc2)n1 [730 218] | 1 500 mg/kg/PO | 1500 | – | 37 | – | – | – | 50 | – | mortality ([2]; 1 2500 mg/kg/PO): ~50%; positive inotrope action ([14]; 0.5 μg/ml): positive inotrope action; Percentage of diminution of the number of painful stretchings ([6]; test with bradykinine, 100 mg/kg/PO): 40%
12 | Cc1cc(Nc2ccccc2C(=O)OCC(O)CO)nc(-c2cccc(F)c2)n1 (centres unmarked) [72 826] | – | – | – | – | – | 0 | 100 | – | 80 | inhibition in vivo at 100 mg/kg ([4]; rat): 60%
13 | Cc1cc(Nc2ccc(C(=O)N3CCCCC3)cc2)nc(-c2ccc(Cl)cc2)n1 [72 276] | – | – | – | – | 40 | 0 | 50 | – | – | –
14 | Cc1cc(Nc2ccccc2C(N)=O)nc(-c2cccc(C(F)(F)F)c2)n1 [72 419] | – | – | – | – | – | 0 | – | – | 80 | positive inotrope action ([14]; 1 μg/ml): positive inotrope action; inhibition in vivo at 100 mg/kg ([4]; rat): 50%
15 | Cc1cc(Nc2ccc(OCCN(C)C)cc2)nc(-c2ccc(Cl)cc2)n1 [730 225] | – | > 2000 | – | 42 | 53 | ~20 | – | 80 | – | Percentage of diminution of the number of painful stretchings ([3]; Randall and Selitto test, 100 mg/kg/PO): 50%
16 | Cc1cc(Nc2ccc(OCCN3CCOCC3)cc2)nc(-c2cccc(C(F)(F)F)c2)n1 [730 712] | – | – | – | – | – | 0 | – | – | 90 | activation at 1 µg/mL ([14]; Cavia porcellus, 1 μg/ml, read-out: augmentation in the force of contractions): 140%; Percentage augmentation of arterial pressure [15]: 23%; inhibition in vivo at 100 mg/kg ([12]; mouse, escape enclosure, 100mg/kg/p.o., read-out: Percentage diminution of number of explorations): 32%; inhibition in vivo at 100 mg/kg [7]: 60%
